Two compounds from patent US6479466B1, “Compositions for treating viral infections, and methods therefor” (University of Maryland, priority 1999, dated 2002) can be followed below.

One data set has as its system PHA-stimulated PBMCs. The data set can be described thus: MTT cell proliferation assay in PHA-stimulated PBMCs. The data set is classed as cell-based, human. As to the method:
The effect of RV and […] on PBMC proliferation at the concentrations shown to enhance the anti-HIV effect of ddI were examined. Cellular proliferation in culture in the presence or absence of drugs was measured by commercial MTT assay, according to the manufacturer's instructions (Boehringer Mannheim). Cell viability was determined by trypan blue staining.
Proliferation was measured on PHA-stimulated PBMCs cultured in the presence of IL-2, 2 μM ddI, and RV or HU. The MTT assay was performed on days 2 and 5 (FIG. 8), and days 2 and 7 (FIG. 20) after the addition of the drugs. […] On day 5, RV at 10 μM inhibited proliferation by 30%, whereas HU inhibited proliferation by 40 to 50%, depending on the donor.
Proliferating PBMCs were cultured in the presence of RV or HU for 5 days. On day 2 and 5 an MTT assay and a ^3H-thymidine incorporation assay were performed. The MTT is a […] assay that measures cellular metabolic activity and directly correlates to the number of cells in the culture. The ^3H-thymidine incorporation assay relies on the incorporation of the radioactive nucleoside ^3H-thymidine into newly synthesized DNA. […] These differences between the effects of RV and HU were even more striking in the MTT and ^3H-thymidine incorporation assays conducted on day 5 (FIG. 12 and FIG. 13, respectively).
For orientation: Formazan colour is commonly taken as a measure of viable cells.

The subject of data set [1] is clinical isolates of HIV-1 (EJC-1 to EJC-4). The data set can be described thus: p24 antigen production in activated PBMCs infected with clinical isolates. The data set is classed as cell-based. As to the method:
For infection studies involving PBMCs, cells were stimulated with 2.5 or 10 μg/ml phytohemagglutinin (PHA; Boehringer Mannheim, Indianapolis, Ind.) for 3 days. Stimulated PBMCs were infected by incubation with virus at a multiplicity of infection of 1000 TCID50/10^6 PBMC for 2 hours. PBMCs were then washed three times with PBS and cultured in 5% CO2 at 37° C., in RPMI/10% FBS supplemented with 10 units/ml IL-2 (Boehringer Mannheim) and drugs as appropriate. PBMCs were seeded in 96-well flat-bottom plates at a density of 2×10^5 PBMCs/200 μl. Following 3 days of culture half of the medium was replaced with fresh medium containing IL-2 and drugs. After 7 days of culture, HIV-1 p24 antigen production in the culture supernatant was assayed by ELISA (Coulter, Hialeah, Fla.). The concentration of nucleoside analog, alone and in combination with resveratrol, that reduced the p24 antigen value of the untreated control by 90% (IC90) was calculated by using nonparametric regression analysis. The analysis used the median-effect equation, Fa=1/[1+(Dm/D)]^m, where D is the dose, Fa is the fraction affected, and Dm is the dose required to produce the median effect.
The increase of ddI-antiviral activity by RV was next evaluated in a panel of clinical isolates of HIV-1. […]

Data set [2] relates to HIV-174V isolate (L74V mutation in the RT gene). The data set can be described thus: p24 antigen in activated PBMCs infected with ddI-resistant isolate 74V. It is filed as cell-based, HIV-1. The text has this: (§1) The present example provides data to test whether viral isolates carrying mutations in the RT gene that confer resistance to ddI could be rendered sensitive when the nucleoside analogue was combined with RV. Viruses containing one or more of the mutations associated with resistance to ddI, e.g., an isolate carrying the L74V mutation which confers primary resistance to ddI, a virus isolate carrying 4 different resistance-associated mutations in the RT gene (HIV-1 RTMDR1) were used to infect PHA-stimulated PBMCs. The HIV-174V isolate, and the HIV-1RTMDR1 isolate (containing the M41L, L74V, V106A and T215Y mutations, conferring resistance to AZT, ddI, nevirapine and other non-nucleotide RT inhibitors) were obtained from Dr. Larder at the National Institutes of Health AIDS Research and Reference Reagent Program (Catalog #2528 and #2529, respectively, Rockville, Md.). In addition, viruses having mutations 65R, 74V, 184V in the RT gene, and a virus containing the multiple-nucleoside-resistance mutation 151M were assayed in infectivity assays using RV plus ddI. The mutations present in the RT gene of each virus as well as their susceptibility to ddI are as follows: HIV-174V(ddIIC90=2.6 μM); HIV-141L, 74V, 106A, 215Y (ddIIC90=4.5 μM); HIV-165R, 74V, 184V (ddIIC90>20 μM) and HIV-162V, 751, 77L, 151M (ddIIC90>20 μM). […]

Data set [3] has as its system HIV-1RTMDR1 isolate (M41L, L74V, V106A and T215Y). The experiment in a line: p24 antigen in activated PBMCs infected with isolate RTMDR1. It is filed as cell-based.
Description: as §1

A further data set deals with HIV-165R, 74V, 184V. The experiment in a line: p24 antigen in activated PBMCs infected with isolate 65R, 74V, 184V. The conditions noted are these: Human immunodeficiency virus 1, PBMC, read-out: ddI IC90. It is filed as cell-based, HIV-1.
Description: as §1

[4] abbreviates: Human immunodeficiency virus 1, PBMC, read-out: ddI IC90.

As a reminder, the IC90 is the point of the concentration-response curve where the effect stands at 90%.

Structures are written as SMILES. Where only a bound is given, the exact number is not on record here.

Take `Oc1ccc(/C=C/c2cc(O)cc(O)c2)cc1` [RV, trans-3, 4′, 5-trihydroxystilbene]: in the data set with PHA-stimulated PBMCs (5 μM RV, with IL-2 and 2 μM ddI), the “impact on cell proliferation” value is on record as “Minimal impact on cell proliferation”. Further, the “OD values in the MTT assay” value in the data set on PHA-stimulated PBMCs (10 μM RV, day 7, with IL-2 and 2 μM ddI) is given as “higher than those obtained with 100 μM HU”. For the same compound, the MTT values result in the data set with PHA-stimulated PBMCs (RV 10 μM, day 2, no ddI) is “slightly lower than the untreated control”. For the same compound, the inhibition of proliferation result in the data set with PHA-stimulated PBMCs (RV 10 μM, day 2, with IL-2 and 2 μM ddI) was “inhibited proliferation slightly”; in the data set with PHA-stimulated PBMCs (RV 10 μM, day 5, with IL-2 and 2 μM ddI) it was 30%.

`OC[C@@H]1CC[C@H](n2cnc3c(O)ncnc32)O1` [ddI, 2′,3′-dideoxyinosine]: the “enhancement of antiviral activity of ddI” value in data set [1] (1 μM ddI plus 5 μM RV, depending on the clinical isolate) is reported as 18-185 fold. Further, the “enhancement of ddI activity” value in data set [1] (1 μM ddI plus 10 μM RV) is listed as 88-1200 fold. Further, the “suppression of viral replication” value is 28% in data set [2] (2 μM ddI alone) and 34% in data set [3] (2 μM ddI alone). For the same compound, the concentration for an effect of 90% (IC90) in data set [2] (setting [4]) is 2.6 µM; in data set [3] (setting [4]) it was 4.5 µM; in the data set with HIV-165R, 74V, 184V, greater than 20 µM.
